Test results taken from patent publication US20110178182A1, “ENRICHED NANOSTRUCTURE COMPOSITION” (DO-COOP TECHNOLOGIES LTD., priority 2007, published 2011).

Legend:
[1] = Solubilizing Daunorubicine; type: physicochemical; conditions: 2 mg/ml in GENC or RO water
Method: Required concentration: 2 mg/ml

[2] = Solvent capability: Taxol (Example 28); type: physicochemical; conditions: 0.5 mM in DMSO or in the composition with 17% EtOH
Method: 0.5 mM Taxol solution can be prepared (0.0017 gr in 4 ml) in either DMSO or the enriched nanostructure composition of the present embodiments with 17% EtOH. Absorbance can be detected with a spectrophotometer.

SMILES	dissolution [1]	dissolution [2]
COc1cccc2c1C(=O)c1c(O)c3c(c(O)c1C2=O)C[C@@](O)(C(C)=O)C[C@@H]3O[C@H]1C[C@H](N)[C@H](O)[C@H](C)O1 [Daunorubicine]	dissolved easily both in the enriched nanostructure composition of the present embodiments and in RO water	
CC(=O)O[C@H]1C(=O)[C@@]2(C)[C@H]([C@H](OC(=O)c3ccccc3)[C@]3(O)C[C@H](OC(=O)[C@H](O)[C@@H](NC(=O)c4ccccc4)c4ccccc4)C(C)=C1C3(C)C)[C@]1(OC(C)=O)CO[C@@H]1C[C@@H]2O [Taxol, Paclitaxel]		dissolved both in DMSO and the enriched nanostructure composition
